In patent US12453709B2, “Compositions and methods for treating autism” (priority 2013, dated 2025):

Legend:
patients with autism = assay: Example 5: open-label evaluation of L1-79 (ABC-C, ADOS-2); assay type: in vivo, human
Procedure: L1-79 was used anecdotally in two patients followed by a more structured evaluation in 8 additional patients with autism. All patients were administered a starting dose of L1-79 of 90 mg TID for a minimum of 3 months. During the evaluation doses as high as 400 mg TID were used. A summary of data available on these 10 patients was provided in the Summary of Clinical Efficacy, Use of L1-79 to treat autism, submitted to IND 128673, sequence number 0005.

[1] = system: patients qualified under the DSM-5 definition of autism; assay: Example 4: adverse events and clinical observation; assay type: in vivo, human
Procedure: α-methyl-DL tyrosine (AMPT) was administered to 3 patients. This group of patients was qualified under the DSM-5 definition of autism and treated.

[2] = Study HT 02-121: L1-79 plasma concentrations (pharmacokinetics); assay type: in vivo; details: male, human, open-label 200 mg TID, read-out: plasma concentration at 1-hour post-dose on Day 1
Procedure: The first five patients in each cohort were assigned to receive active medication in an open-label fashion. The patients were treated identically to the randomized patients with the following exceptions: (1) blood samples were drawn at baseline and 1 hour after dosing, and at Week 1, 2, 3 and 4 treatment visits 1 hour after dosing to determine the PK of L1-79, (2) EKGs were assessed at baseline and within 3-days prior to the Week 1, 2, 3 and 4 treatment visits as well as the 1-week and 4-week post-dosing follow-up visits, (3) vital signs, physical exams, and ASD assessments were performed at 1-week postdosing visit, (4) blood and urine samples were drawn at baseline and at Week 1, 2, 3 and 4 treatment visits 1 hour after dosing as well as the 1-week and 4-week post-dosing follow-up visits for safety analyses.
Pharmacokinetics were assessed in the open-label 100 mg and 200 mg TID patients. On Day 1, L-79 concentrations were assessed one-hour post dose. Subsequently, a random L1-79 plasma concentration was assessed at Week 1, Week 2, Week 3 and Week 4.

[3] = system: patients qualified under the DSM-5 definition of autism; assay: Example 4: Aberrant Behavior Checklist-Community (ABC-C); assay type: in vivo, human; details: for ABC irritability / ABC lethargy / ABC speech / ABC stereotypy / ABC hyperactivity / ABC TOTAL: PT RS; for ABC irritability: initial 3; for ABC lethargy: initial 6; for ABC speech: initial 8; for ABC TOTAL: initial 53
Procedure: α-methyl-DL tyrosine (AMPT) was administered to 3 patients. This group of patients was qualified under the DSM-5 definition of autism and treated. The Aberrant Behavior Checklist-Community (ABC-C), Autism Diagnostic Observation Schedule (ADOS), Conners Parent Rating Scale (CPRS), and General Clinical Impressions scale were used to assess the disease. Videos were taken at each visit.

concentration at 1 h [2]: 23 to 1680 ng/mL
Structure (SMILES): CC(N)(Cc1ccc(O)cc1)C(=O)O (racemic) [L1-79, α-methyl-DL-tyrosine]
effect of longer treatment on core symptoms (patients with autism; open-label): greater magnitude of therapeutic benefits
ABC-C domains (patients with autism; open-label, 10 patients): consistent improvements
average reduction in the ADOS-2 (patients with autism; open-label, 10 patients, from 90 mg TID, minimum 3 months): 30%
ADOS-2 decrease in one child (loss of autism diagnosis) (patients with autism; open-label, one child): 60%
benefits after discontinuation (patients with autism; study drug discontinued): not all of the benefits regressed
adverse events reported ([1]; Example 4 patients): mild tiredness on the first day of dosing in two patients
clinical improvements, onset and durability ([1]; Example 4 patients): begin quickly and are durable
Adverse Events ([1]; patient 01-001, 90 TID): None
Adverse Events ([1]; patient 01-002, 90 TID): None
Adverse Events ([1]; patient 01-003, 90 TID): None
ABC-C speech ([3]; PT LR, Day 7, initial 5): 7
ABC-C stereotypy ([3]; PT LR, Day 7, initial 13): 5
ABC-C irritability ([3]; PT LR, Day 7, initial 21): 16
ABC-C lethargy ([3]; PT LR, Day 7, initial 31): 12
ABC-C hyperactivity ([3]; PT LR, Day 7, initial 34): 31
ABC-C TOTAL ([3]; PT LR, Day 7, initial 114): 71
ABC-C speech ([3]; PT LR, Day 14, initial 5): 7
ABC-C stereotypy ([3]; PT LR, Day 14, initial 13): 0
ABC-C irritability ([3]; PT LR, Day 14, initial 21): 16
ABC-C lethargy ([3]; PT LR, Day 14, initial 31): 8
ABC-C hyperactivity ([3]; PT LR, Day 14, initial 34): 24
ABC-C TOTAL ([3]; PT LR, Day 14, initial 114): 55
ABC-C speech ([3]; PT LR, Day 21, initial 5): 7
ABC-C stereotypy ([3]; PT LR, Day 21, initial 13): 0
ABC-C irritability ([3]; PT LR, Day 21, initial 21): 16
ABC-C lethargy ([3]; PT LR, Day 21, initial 31): 7
ABC-C hyperactivity ([3]; PT LR, Day 21, initial 34): 23
ABC-C TOTAL ([3]; PT LR, Day 21, initial 114): 53
ABC-C speech ([3]; PT LR, Day 28, initial 5): 7
ABC-C stereotypy ([3]; PT LR, Day 28, initial 13): 0
ABC-C irritability ([3]; PT LR, Day 28, initial 21): 16
ABC-C lethargy ([3]; PT LR, Day 28, initial 31): 7
ABC-C hyperactivity ([3]; PT LR, Day 28, initial 34): 23
ABC-C TOTAL ([3]; PT LR, Day 28, initial 114): 53
ABC irritability ([3]; Day 7): 3
ABC lethargy ([3]; Day 7): 3
ABC speech ([3]; Day 7): 3
ABC stereotypy ([3]; Day 7, initial 16): 11
ABC hyperactivity ([3]; Day 7, initial 20): 8
ABC TOTAL ([3]; Day 7): 28
ABC irritability ([3]; Day 14): 1
ABC lethargy ([3]; Day 14): 1
ABC speech ([3]; Day 14): 3
ABC stereotypy ([3]; Day 14, initial 16): 9
ABC hyperactivity ([3]; Day 14, initial 20): 6
ABC TOTAL ([3]; Day 14): 20
ABC irritability ([3]; Day 21): 1
ABC lethargy ([3]; Day 21): 1
ABC speech ([3]; Day 21): 3
ABC stereotypy ([3]; Day 21, initial 16): 9
ABC hyperactivity ([3]; Day 21, initial 20): 6
ABC TOTAL ([3]; Day 21): 20
ABC irritability ([3]; Day 28): 1
ABC lethargy ([3]; Day 28): 1
ABC speech ([3]; Day 28): 3
ABC stereotypy ([3]; Day 28, initial 16): 9
ABC hyperactivity ([3]; Day 28, initial 20): 6
ABC TOTAL ([3]; Day 28): 20
ABC-C speech ([3]; PT WC, Day 7, initial 1): 0
ABC-C stereotypy ([3]; PT WC, Day 7, initial 12): 7
ABC-C irritability ([3]; PT WC, Day 7, initial 16): 4
ABC-C hyperactivity ([3]; PT WC, Day 7, initial 20): 10
ABC-C lethargy ([3]; PT WC, Day 7, initial 21): 9
ABC-C TOTAL ([3]; PT WC, Day 7, initial 70): 30
ABC-C speech ([3]; PT WC, Day 14, initial 1): 0
ABC-C stereotypy ([3]; PT WC, Day 14, initial 12): 6
ABC-C irritability ([3]; PT WC, Day 14, initial 16): 2
ABC-C hyperactivity ([3]; PT WC, Day 14, initial 20): 7
ABC-C lethargy ([3]; PT WC, Day 14, initial 21): 3
ABC-C TOTAL ([3]; PT WC, Day 14, initial 70): 18
ABC-C speech ([3]; PT WC, Day 21, initial 1): 0
ABC-C stereotypy ([3]; PT WC, Day 21, initial 12): 6
ABC-C irritability ([3]; PT WC, Day 21, initial 16): 2
ABC-C hyperactivity ([3]; PT WC, Day 21, initial 20): 7
ABC-C lethargy ([3]; PT WC, Day 21, initial 21): 2
ABC-C TOTAL ([3]; PT WC, Day 21, initial 70): 17
ABC-C speech ([3]; PT WC, Day 28, initial 1): 0
ABC-C stereotypy ([3]; PT WC, Day 28, initial 12): 6
ABC-C irritability ([3]; PT WC, Day 28, initial 16): 2
ABC-C hyperactivity ([3]; PT WC, Day 28, initial 20): 7
ABC-C lethargy ([3]; PT WC, Day 28, initial 21): 2
ABC-C TOTAL ([3]; PT WC, Day 28, initial 70): 17
